Test results reported in US10981862B2, “Physiological cooling compounds” (Symrise, Inc., priority 2015, dated 2021).

Experiments:
sensory panel = test: Sensory panel evaluation of cooling ability, 20 ppm aqueous solutions; type: in vivo; parameters: key to Peak cooling strength / Peak Strength: —: Not cooling under tested conditions; conditions: for Longevity of cooling sensation / Time to reach peak cooling / Time period at peak cooling / Peak cooling strength / Peak Strength: 20 ppm aqueous solution; for Time period at peak cooling: cooling plateau; for Peak cooling strength: maximum cooling strength rated on a 1-10 scale; for Peak Strength: Table 4, repeats Table 2, 1-10 scale; for Cooling properties, in words: sensory panel results
Experimental: The new carboxamides A1-A15 and B1-B15 were evaluated for their cooling ability by a sensory panel. The evaluation included tasting the 20 ppm aqueous solutions of new carboxamides and rating their maximum cooling strength on a 1-10 scale. In addition, the time at which maximum cooling strength was reached, how long the maximum strength was observed (so called cooling plateau), and the longevity of cooling sensation were recorded. The FIGURE represents a typical cooling profile, using compound A1 as an example. The obtained results (table 2), were compared with two most commonly used commercial cooling compounds WS-3 and WS-23 which belong to the same class of N-alkyl carboxamides. While various methods exist for evaluation of cooling compounds, we have chosen the parameters that allow to assess the practical aspects of new compounds that reflect their potential value as commercial sensory ingredients.

[1] = Cooling strength and longevity in alcohol-free mouthwash; type: in vivo; conditions: compared with WS-5
Experimental: Select physiological coolants according to various embodiments were tested in an alcohol-free mouthwash and their impact was evaluated against the control (a known coolant WS-5).

[2] = amount of compound needed to produce a cooling sensation; cited from earlier work
[3] = Cooling evaluation in hard boiled candy; type: in vivo; conditions: compared with both control samples
Experimental: Compound A2 was tested in hard boiled candy and evaluated against controls.

[4] = Cooling strength and longevity in toothpaste; type: in vivo; conditions: compared with controls
Experimental: New cooling compound according to compound A2 was tested in toothpaste and its impact was evaluated against two controls (no coolant and a known coolant WS-5) and in combination with WS-5.

melting point | Compound | Longevity of cooling sensation (sensory panel) | Time to reach peak cooling (sensory panel) | Time period at peak cooling (sensory panel) | Peak cooling strength (sensory panel) | Peak Strength (sensory panel) | Cooling properties, in words (sensory panel) | Cooling effect in mouthwash, in words [1] | Threshold [2] | Cooling impact in hard candy, in words [3] | Cooling effect in toothpaste, in words [4]
88.4 °C | CC(C)C(C)NC(=O)C(C)(C(C)C)C(C)C (centres unmarked) [Compound B4] | 14 min | 3 min | 2 min | 4 |  |  |  |  |  | 
59.4 °C | CC(C)CCCC(C)NC(=O)C(C)(C(C)C)C(C)C (centres unmarked) [Compound B14] |  |  |  | — ^a |  |  |  |  |  | 
72.2 °C | CC(C)CCNC(=O)C(C)(C(C)C)C(C)C [Compound B2] | 12 min | 3 min | 2 min | 2 |  |  |  |  |  | 
82.5 °C | CCCCC(CC)CNC(=O)C(C)(C(C)C)C(C)C (centres unmarked) [Compound B13] |  |  |  | — ^a |  |  |  |  |  | 
65.9 °C | CC(C)C(C)(C(=O)NCC(C)(C)C)C(C)C [Compound B3] | 15 min | 3 min | 3 min | 3 |  |  |  |  |  | 
98 °C | CCCC(C)NC(=O)C(C)(C(C)C)C(C)C (centres unmarked) [Compound B5] | 15 min | 2 min | 3 min | 6 |  |  |  |  |  | 
46.9 °C | CCCCCC(C)NC(=O)C(C)(C(C)C)C(C)C (centres unmarked) [Compound B11] |  |  |  | — ^a |  |  |  |  |  | 
83.7 °C | CC(C)CC(C)NC(=O)C(C)(C(C)C)C(C)C (centres unmarked) [Compound B9] | 18 min | 4 min | 2 min | 5 |  |  |  |  |  | 
67.1 °C | CCC(C)CNC(=O)C(C)(C(C)C)C(C)C (centres unmarked) [Compound B6] | 17 min | 3 min | 2 min | 4 |  |  |  |  |  | 
105 °C | CCC(CC)NC(=O)C(C)(C(C)C)C(C)C [Compound B7] | 14 min | 4 min | 2 min | 4 |  |  |  |  |  | 

Continued, compound first:

Compound | melting point | Longevity of cooling sensation (sensory panel) | Time to reach peak cooling (sensory panel) | Time period at peak cooling (sensory panel) | Peak cooling strength (sensory panel) | Peak Strength (sensory panel) | Cooling properties, in words (sensory panel) | Cooling effect in mouthwash, in words [1] | Threshold [2] | Cooling impact in hard candy, in words [3] | Cooling effect in toothpaste, in words [4]
CCC(CC)NC(=O)C1CC(C)CCC1C(C)C (centres unmarked) [Compound A7] | 192.6 °C | 16 min | 3 min | 2 min | 6 | 6 |  |  |  |  | 
CC1CCC(C(C)C)C(C(=O)NC(C)(C)CC(C)(C)C)C1 (centres unmarked) [Compound A15] | 107 °C | 14 min | 4 min | 6 min | 2 | 2 | only as strong as A12 and much weaker than other coolants |  |  |  | 
CCCCCCNC(=O)C1CC(C)CCC1C(C)C (centres unmarked) [Compound A8] | 58.8 °C | 29 min | 5 min | 2 min | 6 | 6 | peak cooling strength exceeds both WS-3 and A4 | superior long-lasting cooling effect |  |  | 
CC(C)C(C)(C(=O)NC(C)(C)CC(C)(C)C)C(C)C [Compound B15] |  |  |  |  | — ^a |  |  |  |  |  | 
CC(C)CCCC(C)NC(=O)C1CC(C)CCC1C(C)C (centres unmarked) [Compound A14] | 146.7 °C |  |  |  | — ^a | —^a |  |  |  |  | 
CCCCCC(C)NC(=O)C1CC(C)CCC1C(C)C (centres unmarked) [Compound A11] |  | 15 min | 8 min | 2 min | 2 | 2 |  |  |  |  | 
CC1CCC(C(C)C)C(C(=O)NC(C)C(C)C)C1 (centres unmarked) [Compound A4] | 160.2 °C | 20 min | 3 min | 2 min | 5 | 5 |  |  |  |  | 
CCCCCCCCNC(=O)C1CC(C)CCC1C(C)C (centres unmarked) [Compound A12] |  | 10 min | 6 min | 4 min | 2 | 2 |  |  |  |  | 
CCCCCCCNC(=O)C1CC(C)CCC1C(C)C (centres unmarked) [Compound A10] |  | 19 min | 4 min | 1 min | 5 | 5 |  |  |  |  | 
CCC(C)(C)NC(=O)C(C)(C(C)C)C(C)C [Compound B1] |  |  |  |  | — ^a |  | does not possess any cooling properties |  |  |  | 
CCC(C)CNC(=O)C1CC(C)CCC1C(C)C (centres unmarked) [Compound A6] | 92.8 °C | 20 min | 3 min | 2 min | 6 | 6 |  |  |  |  | 
CNC(=O)C(C)(C(C)C)C(C)C [WS-23, reference compound] |  | 7 min | 2 min | 2 min | 4 |  |  |  |  |  | 
CCNC(=O)C1CC(C)CCC1C(C)C (centres unmarked) [WS-3, reference compound] |  | 11 min | 2 min | 2 min | 5 |  |  |  | 0.3 µg |  | 
CC(C)CC(C)NC(=O)C1CC(C)CCC1C(C)C (centres unmarked) [Compound A9] | 152.6 °C | 15 min | 5 min | 4 min | 3 | 3 |  |  |  |  | 
CC(C)CCNC(=O)C1CC(C)CCC1C(C)C (centres unmarked) [Compound A2] | 69.6 °C | 23 min | 5 min | 2 min | 7 | 7 |  | superior long-lasting cooling effect |  | long-lasting cooling impact | superior and longer lasting effect
CNC(=O)C1CC(C)CCC1C(C)C (centres unmarked) [Methyl] |  |  |  |  |  |  |  |  | 1.1 µg |  | 
CCCCCCCNC(=O)C(C)(C(C)C)C(C)C [Compound B10] |  |  |  |  | — ^a |  |  |  |  |  | 
CCC(C)(C)NC(=O)C1CC(C)CCC1C(C)C (centres unmarked) [Compound A1] | 133.1 °C | 25 min | 6 min | 2 min | 8 | 8 | one of the most potent coolants found among the N-alkyl p-menthane carboxamides | superior long-lasting cooling effect |  |  | 
CCCCCCNC(=O)C(C)(C(C)C)C(C)C [Compound B8] |  | 17 min | 4 min | 1 min | 3 |  |  |  |  |  | 
CC1CCC(C(C)C)C(C(=O)NCC(C)(C)C)C1 (centres unmarked) [Compound A3] | 152.4 °C | 22 min | 4 min | 3 min | 7 | 7 |  |  |  |  | 
CCCCCCCCNC(=O)C(C)(C(C)C)C(C)C [Compound B12] |  |  |  |  | — ^a |  |  |  |  |  | 
